The target of the assay is human adenosine A2b receptor (Homo sapiens (Human), UniProt P29275). The experiment in a line: Cellular in vitro reporter gene test for A2b receptor activity (CHO-K1, CRE-luciferase, NECA stimulation). In kind it is cell-based. The note with it: recombinant CHO-K1 cell line, CRE-luciferase reporter, antagonism of EC50 concentration of NECA; in some cases means of several determinations, rounded to two significant figures; read-out: A2b receptor IC50. An outline of the steps:
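CHO-K1 cells with CRE-driven luciferase; antagonists co-incubated with NECA at its EC50, determined in a pre-experiment on each test day. Luciferase read by luminescence 3 h after NECA addition.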

Chain of human adenosine A2b receptor (P29275 whole entry): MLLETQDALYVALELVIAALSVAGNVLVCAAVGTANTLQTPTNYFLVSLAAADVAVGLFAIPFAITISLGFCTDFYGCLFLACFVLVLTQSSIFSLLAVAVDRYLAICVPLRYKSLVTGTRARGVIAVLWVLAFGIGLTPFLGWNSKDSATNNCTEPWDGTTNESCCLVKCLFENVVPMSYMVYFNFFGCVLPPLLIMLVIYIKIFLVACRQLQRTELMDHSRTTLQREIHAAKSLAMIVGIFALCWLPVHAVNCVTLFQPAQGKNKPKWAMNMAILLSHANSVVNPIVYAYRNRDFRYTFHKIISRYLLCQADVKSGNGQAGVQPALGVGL

In the case of `CCn1c(=O)c2c(C)c(CN3CCCOC3=O)sc2n(CCC(F)(F)F)c1=O` [Example 25, 3-Ethyl-5-methyl-6-[(2-oxo-1,3-oxazinan-3-yl)methyl]-1-(3,3,3-trifluoropropyl)thieno[2,3-d]pyrimidine-2,4(1H,3H)-dione], the 50% inhibitory concentration (IC50) is 5.7 nM. The value for `COC(=O)N=C1NCCN1Cc1sc2c(c1C)c(=O)n(CC(C)(C)C)c(=O)n2CCC(F)(F)F` [Example 461, Methyl [1-{[3-(2,2-dimethylpropyl)-5-methyl-2,4-dioxo-1-(3,3,3-trifluoropropyl)-1,2,3,4-tetrahydrothieno[2,3-d]pyrimidin-6-yl]methyl}imidazolidin-2-ylidene]carbamate] was 9.2 nM; that for `CCn1c(=O)c2c(C)c(Cn3[nH]ccc3=O)sc2n(CCOC)c1=O` [Example 128, 3-Ethyl-1-(2-methoxyethyl)-5-methyl-6-[(5-oxo-2,5-dihydro-1H-pyrazol-1-yl)methyl]thieno[2,3-d]pyrimidine-2,4(1H,3H)-dione] was 4.7 nM. With `CCn1c(=O)c2c(C)c(CN3CCNC3=S)sc2n(CCOC2CCCC2)c1=O` [Example 293, 1-[2-(Cyclopentyloxy)ethyl]-3-ethyl-5-methyl-6-[(2-thioxoimidazolidin-1-yl)methyl]thieno[2,3-d]pyrimidine-2,4(1H,3H)-dione], the IC50 came out at 120 nM. The value for `COCCn1c(=O)n(CC(C)(C)C)c(=O)c2c(C)c(Cn3cc[nH]c3=O)sc21` [Example 506, 3-(2,2-Dimethylpropyl)-1-(2-methoxyethyl)-5-methyl-6-[(2-oxo-2,3-dihydro-1H-imidazol-1-yl)methyl]thieno[2,3-d]pyrimidine-2,4(1H,3H)-dione] was 12 nM. The value for `CCn1c(=O)c2c(C)c(CN3CCNC(=O)C3=O)sc2n(CC2CCCO2)c1=O` (single isomer, unassigned) [Example 476, 6-[(2,3-Dioxopiperazin-1-yl)methyl]-3-ethyl-5-methyl-1-(tetrahydrofuran-2-ylmethyl)thieno[2,3-d]pyrimidine-2,4(1H,3H)-dione] was 140 nM.

On to `CCn1c(=O)c2c(C)c(Cn3cc(C)[nH]c3=O)sc2n(CCC(F)(F)F)c1=O` [Example 250, 3-Ethyl-5-methyl-6-[(4-methyl-2-oxo-2,3-dihydro-1H-imidazol-1-yl)methyl]-1-(3,3,3-trifluoropropyl)thieno[2,3-d]pyrimidine-2,4(1H,3H)-dione], for which the IC50 turned out to be 18 nM. The result for `CCn1c(=O)c2c(C)c(CN3CCNC3=NC(=O)OC)sc2n(CC2CCCO2)c1=O` (single isomer, unassigned) [Example 376, Methyl [1-{[3-ethyl-5-methyl-2,4-dioxo-1-(tetrahydrofuran-2-ylmethyl)-1,2,3,4-tetrahydrothieno[2,3-d]pyrimidin-6-yl]methyl}imidazolidin-2-ylidene]carbamate] reads 7.9 nM; that for `COCCn1c(=O)n(C(C)C)c(=O)c2c(C)c(CN3CCNC(=O)C3=O)sc21` [Example 479, 6-[(2,3-Dioxopiperazin-1-yl)methyl]-3-isopropyl-1-(2-methoxyethyl)-5-methylthieno[2,3-d]pyrimidine-2,4(1H,3H)-dione], 140 nM. As to `CCn1c(=O)c2c(C)c(CN3CCNC3=NC#N)sc2n(CCOC)c1=O` [Example 117, [1-{[3-Ethyl-1-(2-methoxyethyl)-5-methyl-2,4-dioxo-1,2,3,4-tetrahydrothieno[2,3-d]pyrimidin-6-yl]methyl}imidazolidin-2-ylidene]cyanamide], the IC50 was determined as 5.2 nM. The value for `Cc1c(Cn2nc[nH]c2=O)sc2c1c(=O)n(C(C)C(F)(F)F)c(=O)n2CCC(F)(F)F` (racemic) [Example 437, 5-Methyl-6-[(5-oxo-4,5-dihydro-1H-1,2,4-triazol-1-yl)methyl]-3-(1,1,1-trifluoropropan-2-yl)-1-(3,3,3-trifluoropropyl)thieno[2,3-d]pyrimidine-2,4(1H,3H)-dione] was 48 nM. The value for `Cc1c(CN2CCNC2=O)sc2c1c(=O)n(CC(F)F)c(=O)n2CC1CCCO1` (racemic) [Example 219, 3-(2,2-Difluoroethyl)-5-methyl-6-[(2-oxoimidazolidin-1-yl)methyl]-1-(tetrahydrofuran-2-ylmethyl)thieno[2,3-d]pyrimidine-2,4(1H,3H)-dione] was 19 nM. The result for `COCCn1c(=O)n(CC(F)(F)F)c(=O)c2c(C)c(Cn3nc[nH]c3=O)sc21` [Example 433, 1-(2-Methoxyethyl)-5-methyl-6-[(5-oxo-4,5-dihydro-1H-1,2,4-triazol-1-yl)methyl]-3-(2,2,2-trifluoroethyl)thieno[2,3-d]pyrimidine-2,4(1H,3H)-dione] reads 58 nM; that for `Cc1c(CN2CCNC2=NC#N)sc2c1c(=O)n(CC(C)(C)C)c(=O)n2CCC(F)(F)F` [Example 443, [1-{[3-(2,2-Dimethylpropyl)-5-methyl-2,4-dioxo-1-(3,3,3-trifluoropropyl)-1,2,3,4-tetrahydrothieno[2,3-d]pyrimidin-6-yl]methyl}imidazolidin-2-ylidene]cyanamide], 7.4 nM; that for `Cc1c(CN2CCNC(=O)C2=O)sc2c1c(=O)n(C(C)C)c(=O)n2CC1CCCO1` (single isomer, unassigned) [Example 482, 6-[(2,3-Dioxopiperazin-1-yl)methyl]-3-isopropyl-5-methyl-1-(tetrahydrofuran-2-ylmethyl)thieno[2,3-d]pyrimidine-2,4(1H,3H)-dione], 410 nM.

As to `COC(C)Cn1c(=O)c2c(C)c(CN3CCNC3=NC#N)sc2n(CCC(F)(F)F)c1=O` (racemic) [Example 454, [1-{[3-(2-Methoxypropyl)-5-methyl-2,4-dioxo-1-(3,3,3-trifluoropropyl)-1,2,3,4-tetrahydrothieno[2,3-d]pyrimidin-6-yl]methyl}imidazolidin-2-ylidene]cyanamide], the IC50 came out at 6.1 nM. The result for `COCCn1c(=O)n(CC(C)OC)c(=O)c2c(C)c(CN3CCNC3=O)sc21` (racemic) [Example 99, 1-(2-Methoxyethyl)-3-(2-methoxypropyl)-5-methyl-6-[(2-oxoimidazolidin-1-yl)methyl]thieno[2,3-d]pyrimidine-2,4(1H,3H)-dione] reads 17 nM. The result for `COCCn1c(=O)n(C(C)COC)c(=O)c2c(C)c(CN3CCNC3=O)sc21` (single isomer, unassigned) [Example 331, 1-(2-Methoxyethyl)-3-(1-methoxypropan-2-yl)-5-methyl-6-[(2-oxoimidazolidin-1-yl)methyl]thieno[2,3-d]pyrimidine-2,4(1H,3H)-dione] reads 61 nM; that for `CCOCCn1c(=O)n(CCOC)c(=O)c2c(C)c(CN3CCNC3=S)sc21` [Example 169, 1-(2-Ethoxyethyl)-3-(2-methoxyethyl)-5-methyl-6-[(2-thioxoimidazolidin-1-yl)methyl]thieno[2,3-d]pyrimidine-2,4(1H,3H)-dione], 36 nM. The result for `Cc1c(CN2CCNC2=O)sc2c1c(=O)n(CC(C)(C)C)c(=O)n2CC1CCCO1` (single isomer, unassigned) [Example 408, 3-(2,2-Dimethylpropyl)-5-methyl-6-[(2-oxoimidazolidin-1-yl)methyl]-1-(tetrahydrofuran-2-ylmethyl)thieno[2,3-d]pyrimidine-2,4(1H,3H)-dione] reads 12 nM.

Source of the values: patent US10428083B2, “Heterocyclylmethyl-thienouracile as antagonists of the adenosine-A2B-receptor” (BAYER PHARMA AKTIENGESELLSCHAFT, priority 2015, dated 2019).
